# In US20140140925A1, “FOLATE-TARGETED DIAGNOSTICS AND TREATMENT” (priority 2009, published 2014):
# What was measured:
# folate receptors [1] = test: 99mTc-EC20 SPECT uptake in target lesions (EC-FV-02); assay type: in vivo, human
# Experimental: EC20 Patient Scanning Procedure. Following completion of screening procedures and confirmation of eligibility, all subjects received one intravenous injection of 0.5 mg of folic acid followed within 1-3 minutes by a 1-2 mL injection of 0.1 mg of EC20 labeled with 20-25 mCi of technetium-99m. Patients then underwent SPECT imaging (mid-thigh to head, posterior and anterior images) 1-2 hours following injection of EC20. Target lesions were selected by the radiologist according to RECIST (v1.0) criteria. Subsequently, nuclear medicine physicians assessed EC20 uptake for each target lesion visually, and classified the uptake as “positive” (marked/mild uptake) or “negative” (no uptake).
# EC20 Lesion Scoring Procedure.
# Forty-five protocol-eligible subjects with a total of 216 RECIST-defined target tumors (ie, “lesions”) were included in this retrospective analysis (table below). One-hundred and forty-five (145/216; 67%) of the lesions were considered EC20 “evaluable.” Of these, 111 (77%) had EC20 “positive” uptake.
# folate receptors [2] = test: EC20 scan of ovarian cancer patients at the interim analysis of Example 25; assay type: in vivo, human; conditions: at the time of the interim analysis of Example 25
# Text: Folate-receptor status in the patient is positive if one or more tumors in the patient have folate receptors capable of binding EC20 or if all tumors in the patient are capable of binding EC20. In one illustrative example, the folate-radioactive imaging agent conjugate is ^99mTc-EC20. At the time of the interim analysis described in Example 25, below, 91.3% of all ovarian cancer patients scanned with EC20 had been “positive” (indicated by having at least one tumor lesion/area that binds EC20) versus 8.7% of patients that were fully EC20 “negative”.
# In this visual assessment embodiment (visual detection), lesions are evaluated visually to determine if the patient has a threshold level of functionally active folate receptors indicative of a clinical benefit to the patient. In one aspect, lesions (i.e., tumors) for analysis in each patient are selected by a radiologist according to RECIST (v1.0) criteria. Subsequently, a nuclear medicine physician (i.e. reader) assesses the uptake of the EC20 for each evaluable target lesion visually, and classifies the uptake as “EC20 positive” (marked uptake/mild uptake) or “EC20 negative” (no uptake). In one illustrative example the folate-radioactive imaging agent conjugate is ^99mTc-EC20.
# [3] = Storage stability of EC20 drug substance and EC20 kits; assay type: physicochemical; conditions: −20° C. in amber glass bottles with butyl rubber stoppers
# Experimental: EC20 kits were used for preparation of the ^99mTc-EC20 radioactive drug substance. Each kit contained a sterile, non-pyrogenic lyophilized mixture of 0.1 mg EC20, 80 mg sodium α-D-glucoheptonate, […] dihydrate, and sufficient sodium hydroxide or hydrochloric acid to adjust the pH to 6.8±0.2 prior to lyophilization. The lyophilized powder was sealed in a 5 mL vial under an argon atmosphere. The kits were then stored frozen at −20° C. until use or expiration (current shelf life is >2 years). The tin (II) chloride component is present to reduce the added ^99mTc-pertechnetate, while the sodium α-D-glucoheptonate component is present to stabilize the reduced ^99mTc prior to its final chelation to the EC20 compound.
# EC20 Drug Substance is stored at −20° C. in amber glass bottles with butyl rubber stoppers.
# [4] = of 145 evaluable lesions, visual SPECT assessment, 45 subjects
Compound,"subjects with EC20 uptake observed visually in at least 1 target lesion (folate receptors [1]; 45 subjects, EC-FV-02)",Negative (EC20−(neg)) lesions (folate receptors [1]; [4]),Positive (EC20+) lesions (folate receptors [1]; [4]),"uptake in liver, spleen, bladder, and kidney (folate receptors [1]; organs whose target lesions were considered non-evaluable)","ovarian cancer patients scanned ""positive"" (at least one tumor lesion/area that binds EC20) (folate receptors [2]) [%]","patients fully EC20 ""negative"" (folate receptors [2]) [%]",time stable on storage [3]
Nc1nc2ncc(CNc3ccc(C(=O)N[C@H](CCC(=O)NC[C@@H]4[NH][99Tc]56(=[O])[S]C[C@@H](C(=O)O)[N]5C(=O)[C@H](CC(=O)O)[N]6C4=O)C(=O)O)cc3)nc2c(=O)[nH]1 [EC20],Eighty-seven percent,34 (23%) N (%),111 (77%) N (%),inherently high uptake,91.3,8.7,–
"Nc1nc2ncc(CNc3ccc(C(=O)N[C@H](CCC(=O)NC[C@H](N)C(=O)N[C@@H](CC(=O)O)C(=O)N[C@@H](CS)C(=O)O)C(=O)O)cc3)nc2c(=O)[nH]1 [EC20 Drug Substance, pteroyl-γ-D-glutamyl-β-L-2,3-diaminopropionyl-L-aspartyl-L-cysteine]",–,–,–,–,–,–,more than 24 months
